From paper PMC8406319, “The dCache Chemoreceptor TlpA of Helicobacter pylori Binds Multiple Attractant and Antagonistic Ligands via Distinct Sites” (mBio, 2021)
Structures can show the parent of a compound that is named as a salt.

Test system: TlpALBD point mutants
Assay: SPR binding affinity of TlpALBD point mutants relative to WT
Set-up: species or system Helicobacter pylori SS1
Settings: Y228A, Y252A, D254A vs WT
From the text: The periplasmic portion of TlpA (TlpALBD), amino acids 28 to 299, from Helicobacter pylori SS1 was cloned into a pBH4 expression vector (pBH4_TlpALBD) to generate an N-terminal 6×His-tagged construct, with a tobacco etch virus (TEV) protease site, under the control of isopropyl-β-D-thiogalactopyranoside (IPTG) ([19]). […] TlpALBD and all point mutants were purified as described previously by Sweeney et al. ([19]).
Purified TlpALBD was immobilized on a CM5 series S sensor chip, and binding affinities were tested using a Biacore S200 instrument (GE Healthcare) as described previously ([39], [57], [59]). Briefly, proteins were captured using an amine-coupling kit (GE Healthcare), in which the carboxylmethyl dextran matrix of the sensor chip was activated by the injection of a mixture of 0.2 M 1-ethyl-3-[(3-dimethylamino)propyl]-carbodiimide (EDC) and 0.05 M N-hydroxysuccinimide (NHS), followed by the neutralization of the remaining unreacted NHS ester groups by the injection of 1 M ethanolamine-HCl (pH 8.0). Purified TlpALBD was diluted in 10 mM sodium acetate buffer (pH 4.5) at a concentration of 100 μg/ml for immobilization to the chip. A total of 8,400 response units (RU) of TlpALBD were captured on flow cell 2. […] The data sets were analyzed using Biacore S200 evaluation software 2.0.2; sensorgrams were double-reference subtracted.

N[C@H]1C(O)O[C@H](CO)[C@@H](O)[C@@H]1O (stereo partly drawn) [Glucosamine, D(+)-glucosamine hydrochloride]
Effect of proximal pocket residue mutations on binding affinity: No proximal pocket residues affected the binding affinity
